Measurements published in US20110281922A1, “AMIDE THIAZOLE DERIVATIVE, PREPARATION METHOD AND USES THEREOF” (TIANJIN INSTITUTE OF PHARMACEUTICAL RESEARCH, priority 2008, published 2011).
Counter-ions that a name gives are not always drawn.

Tested on: ICR mice
Assay: Glucose tolerance in fasted ICR mice: serum glucose by glucose-oxidase method after intraperitoneal glucose load
Format: in vivo
Settings: dose 100 mg/kg; for 0.5 h blood sugar: serum glucose 0.5 h after modeling (2 g/kg glucose i.p. 2 h after administration; 1.5 h for diamicron); for 1 h blood sugar: serum glucose 1 h after modeling (2 g/kg glucose i.p. 2 h after administration; 1.5 h for diamicron); for 2 h blood sugar: serum glucose 2 h after modeling (2 g/kg glucose i.p. 2 h after administration; 1.5 h for diamicron); for 3 h blood sugar: serum glucose 3 h after modeling (2 g/kg glucose i.p. 2 h after administration; 1.5 h for diamicron); for 4 h blood sugar: serum glucose 4 h after modeling (2 g/kg glucose i.p. 2 h after administration; 1.5 h for diamicron)
Experimental: 1% sodium carboxymethyl cellulose is used to formulate the sample to a suspension with the concentration of 5 mg/mL, the administration amount is 0.4 mL/20 g body weight, which is corresponding to 100 mg/kg dosage.
The health ICR mice with 20-24 g of body weight fulfill the primary standard, and the male and female of them are in equal. The animals are fasted for 16 hours, and 2 g/kg of glucose-saline solution is injected intraperitoneally at 2 h after administration (glucose is injected at 1.5 h after administration of diamicron). The blood is regularly collected from the post-glomus venous plexus in mice with capillary at 0.5 h, 1 h, 2 h, 3 h, and 4 h after modeling, centrifuged to separate the blood serum, and the content of serum glucose is measured at each of the time-point by glucose-oxidase method.

Compound	0.5 h blood sugar	1 h blood sugar	2 h blood sugar	3 h blood sugar	4 h blood sugar
O=C(CNCc1ccccc1)Nc1nccs1 [Compound I-1, 2-{2-[(benzyl)amino]acetyl}amino thiazole]	266.4 ± 56.9 mg/dL	182.3 ± 57.6 mg/dL	88.2 ± 17.6 mg/dL	60.0 ± 15.6 mg/dL	52.3 ± 28.1 mg/dL
O=C(CNCc1ccccc1Cl)Nc1nc(Br)cs1 [Compound I-2, 4-bromo-2-{2-[(2-chlorobenzyl)amino]acetyl}amino thiazole]	199.2 ± 37.6 mg/dL	153.3 ± 62.7 mg/dL	93.3 ± 48.7 mg/dL	58.2 ± 29.0 mg/dL	60.0 ± 18.2 mg/dL
Cc1csc(NC(=O)CNCc2cccs2)n1 [Compound I-6, 4-methyl-2-{2-[(thienyl-2-methyl)amino]acetyl}amino thiazole]	240.1 ± 41.1 mg/dL	186.8 ± 45.9 mg/dL	113.6 ± 30.9 mg/dL	76.6 ± 48.4 mg/dL	88.0 ± 20.1 mg/dL
O=C(CNCc1sccc1Br)Nc1nc(Br)cs1 [Compound I-7, 4-bromo-2-{2-[(3-bromothienyl-2-methyl)amino]acetyl}amino thiazole]	186.0 ± 67.8 mg/dL	130.2 ± 37.7 mg/dL	100.9 ± 29.6 mg/dL	83.3 ± 91.8 mg/dL	72.1 ± 29.7 mg/dL
COC(=O)c1csc(NC(=O)CNCc2scc(C)c2Br)n1 [Compound I-8, 2-{2-[(3-bromo-4-methylthienyl-2-methyl)amino]acetyl}amino thiazole-4-methyl formate]	162.5 ± 20.6 mg/dL	102.0 ± 30.5 mg/dL	98.7 ± 20.5 mg/dL	62.5 ± 15.3 mg/dL	50.6 ± 18.9 mg/dL
Cl.O=C(CNCc1ccccc1Cl)Nc1nc(Br)cs1 [Compound I-13, 4-bromo-2-{2-[(2-chlorobenzyl)amino]acetyl}amino thiazole hydrochloride]	195.6 ± 78.1 mg/dL	166.5 ± 44.2 mg/dL	99.3 ± 20.9 mg/dL	68.1 ± 21.5 mg/dL	59.2 ± 18.3 mg/dL
Cc1csc(NC(=O)CNCc2cccs2)n1.Cl [Compound I-14, 4-methyl-2-{2-[(thienyl-2-methyl)amino]acetyl}amino thiazole hydrochloride]	233.2 ± 18.1 mg/dL	176.2 ± 25.2 mg/dL	95.4 ± 46.9 mg/dL	65.3 ± 20.1 mg/dL	70.1 ± 15.3 mg/dL
Cl.O=C(CNCc1occc1[N+](=O)[O-])Nc1nc(Br)cs1 [Compound I-15, 4-bromo-2-{2-[(3-nitrylfuranyl-2-methyl)amino]acetyl}amino thiazole hydrochloride]	193.6 ± 76.4 mg/dL	161.5 ± 42.6 mg/dL	91.3 ± 20.0 mg/dL	64.1 ± 20.2 mg/dL	55.1 ± 14.2 mg/dL
Cc1ccc(S(=O)(=O)NC(=O)NN2CC3CCCC3C2)cc1 (stereo not drawn) [diamicron, reference compound]	211.0 ± 91.3 mg/dL	140.3 ± 74.4 mg/dL	103.4 ± 31.7 mg/dL	77.2 ± 25.8 mg/dL	62.3 ± 22.3 mg/dL
